Columns and labels:
VIM [1] = target: T1, VIM (Homo sapiens, UniProt P08670); assay: Immunofluorescent analysis of VIM filamentous architecture in HUVECs; type: cell-based; details: one-hour treatment
T1 construct: endogenous in cells; host or cells: FOXC2-HMLER

VIM [2] = target: T1, VIM; assay: Western blotting / immunofluorescence of VIM protein status in FOXC2-HMLER cells; type: cell-based; details: FOXC2-HMLER cells, Western blotting
Procedure: Western blotting was performed essentially as described previously (M. J. Bollong et al. ACS Chem. Biol. 10 (2015) 2193-2198). Cells were collected by brief trypsinization and centrifugation at 500 g for 5 minutes. Cells were lysed by the addition of RIPA buffer with protease and phosphatase inhibitors (Roche). Lysates were incubated on ice for 30 minutes before eliminating insoluble protein content by centrifugation at 12,000 g for 5 minutes at 4° C. Protein concentrations were determined from absorbance values obtained by a Nanodrop instrument. Equal amounts of protein were then mixed with 2× loading buffer (100 mM TRIS-HCl, 1% SDS, 10% glycerol, 0.1% bromophenol blue 10%-mercaptoethanol) and exposed to 95° C. for 5 minutes. Protein was separated by SDS-PAGE using 4-12% Bis-Tris Gels (Invitrogen) and then transferred to PVDF membranes (Invitrogen) using semi-dry transfer. Membranes were blocked for 1 hour at room temperature in 5% non-fat dry milk in TBST (Tris buffered saline with 0.1% Tween 20). Membranes were incubated overnight with primary antibodies in blocking buffer overnight at the dilutions ranging from 1:500 to 1:2000. After 3 washes with TBST, membranes were then exposed to HRP-conjugated secondary antibodies (1:5000 in blocking buffer, Sigma) for one hour followed by one hour of additional washing with TBST. Relative protein content was visualized using film and SuperSignal West Dura Substrate. For VIM degradation blots, 20-60 μg of protein content was loaded per gel lane and the anti-VIM antibody V9 (ab8069) was used to blot for VIM protein content. Phospho-protein blots were performed as above with the exception that primary antibodies were incubated in 5% bovine serum albumin in TBST instead of milk.
We performed Western blotting analysis of FOXC2-HMLER cells treated for 24 hours with Compound 1 with commercially available antibodies targeting specific phosphorylated VIM species (P-S39, P-S56, P-S83).
In contrast, only a small fraction of cells undergoing mitosis stained positive for P-S56-VIM in DMSO-treated controls, consistent with previous reports identifying phosphorylation at S56 as a modification catalyzed by cyclin dependent kinase 1 (CDK1; FIG. 6) (T. Yamaguchi, T. et al., J. Cell Biol. 171 (2005) 431-436.

FOXC2-HMLER cells [3] = assay: Confocal imaging of thymidine synced FOXC2-HMLER cells at metaphase; type: cell-based, human
From the text: Because Compound 1 induces a hyper-phosphorylated VIM phenotype, we sought to determine if Compound 1's engagement of VIM might interfere at an alternative stage of mitosis. We therefore performed time course confocal imaging studies of Compound 1 treated FOXC2-HMLER cells after their release from thymidine blocking-based cell cycle synchronization.
Compound 1 treatment also disrupted the ability of β-tubulin to faithfully form the fine spindle microtubules of the mitotic spindle, instead resulting in a compressed phenotype with radiating projections connecting unaligned chromosomes. To assess the uniqueness of this phenotype, we evaluated the metaphase phenotypes of other chemical inhibitors which have shown to alter mitotic progression. These included inhibitors of centromere-associated protein E (CENP-E, also called kinesin-7, GSK92395), kinesin spindle protein (KSP, also called Eg5, Ispinesib), polo like kinases (PLK1/2/3, BI2536), and aurora kinases (AURKA/B/C, VX-680).

FOXC2-HMLER cells [4] = assay: Multinucleation of FOXC2-HMLER cells; type: cell-based, human; details: 250-500 nM, 24 hours

T1 sequence (P08670 whole entry): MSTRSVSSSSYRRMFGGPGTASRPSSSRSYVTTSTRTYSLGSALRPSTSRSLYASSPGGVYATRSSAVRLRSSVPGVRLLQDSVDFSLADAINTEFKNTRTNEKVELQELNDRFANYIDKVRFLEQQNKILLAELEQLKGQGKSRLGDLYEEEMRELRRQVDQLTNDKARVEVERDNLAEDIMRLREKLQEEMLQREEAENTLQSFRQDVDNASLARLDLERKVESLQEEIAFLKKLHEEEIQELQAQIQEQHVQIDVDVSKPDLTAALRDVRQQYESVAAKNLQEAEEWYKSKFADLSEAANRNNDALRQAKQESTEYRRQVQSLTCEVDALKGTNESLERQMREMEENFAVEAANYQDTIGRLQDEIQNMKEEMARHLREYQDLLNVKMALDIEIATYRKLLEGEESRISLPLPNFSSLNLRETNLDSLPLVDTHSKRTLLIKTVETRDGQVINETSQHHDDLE

For `CC1=C(CO)C(=O)O[C@@H]([C@@H](C)[C@H]2CC[C@H]3[C@@H]4C[C@H]5O[C@]56[C@@H](O)C=CC(=O)[C@]6(C)[C@H]4CC[C@]23C)C1` [WIF-A, Withaferin A, reference compound], the “VIM filamentous architecture in HUVECs” value (VIM [1]) was “promoted the destruction of fine VIM-containing filamentous structures”, the “lower molecular weight VIM degradation products” value (VIM [2]) was “dose-dependent accumulation” and the “chromosome alignment to the metaphase plate” value (FOXC2-HMLER cells [3]) was “unaligned chromosomes during metaphase”. The “multinucleated FOXC2-HMLER cells” value (FOXC2-HMLER cells [4]) was “significant increase”.

Reference: US11759461B2, “Small molecule inhibitors of cancer stem cells and mesenchymal cancer types” (The Scripps Research Institute, priority 2017, dated 2023)
